Activity calls are given as the source filed them. The rule behind the calls is not given here.
species on record: Rattus norvegicus; test: In vitro growth hormone release in rat pituitary cells at 1 uM; Weakly active; assay type: functional, cell-based; conditions: Pituitary gland cell

For CC(C)(N)CCNC1CCc2ccccc2N(Cc2ccc(-c3ccccc3-c3nn[nH]n3)cc2)C1=O (configuration not stated), the “Growth hormone release at 1 uM (qualitative)” value (from here on “Growth hormone release at 1 uM”) was “Weak activity”.
With C[C@@H](O)CNC(C)(C)CNC(=O)N[C@@H]1CCc2ccccc2N(Cc2ccc(-c3ccccc3-c3nn[nH]n3)cc2)C1=O the “Growth hormone release at 1 uM” value was “Weak activity”.
With CC(C)(N)NC(=O)N[C@@H]1CCc2ccccc2N(Cc2ccc(-c3ccccc3-c3nn[nH]n3)cc2)C1=O the “Growth hormone release at 1 uM” value was “Weak activity”.
In the case of CC(C)(N)CC(=O)OC1CCc2ccccc2N(Cc2ccc(-c3ccccc3-c3nn[nH]n3)cc2)C1=O (configuration not stated), the “Growth hormone release at 1 uM” value is reported as “Weak activity”.

species on record: Rattus norvegicus; test: In vitro growth hormone release in rat pituitary cells at 10 uM; inactive; assay type: functional, cell-based; conditions: Pituitary gland cell

In the case of CC(C)(N)CC(=O)N(Cc1ccccc1)[C@@H]1CCc2ccccc2N(Cc2ccc(-c3ccccc3-c3nn[nH]n3)cc2)C1=O, the ED50 is reported as “inactive”.

species on record: Rattus norvegicus; test: In vitro growth hormone release in rat pituitary cells; assay type: functional; conditions: Pituitary gland cell, read-out: ED50 (the source's name)

Going from C[C@H](O)CNC(C)(C)CC(=O)N[C@@H]1CCc2ccccc2N(Cc2ccc(-c3ccccc3-c3nn[nH]n3)cc2)C1=O to C[C@@H](O)CNC(C)(C)CC(=O)N[C@@H]1CCc2ccccc2N(Cc2ccc(-c3ccccc3-c3nn[nH]n3)cc2)C1=O [L-692585], the EC50 falls from 7 nM to 3 nM (2.3-fold).

CC(C)(N)CCCSC1CCc2ccccc2N(Cc2ccc(-c3ccccc3-c3nn[nH]n3)cc2)C1=O (configuration not stated) and CC(C)(N)CCSC1CCc2ccccc2N(Cc2ccc(-c3ccccc3-c3nn[nH]n3)cc2)C1=O (configuration not stated) are within 1.5-fold of each other in EC50: 7000 nM for the first, 6000 nM for the second.

Compared with CN(C(=O)CC(C)(C)N)[C@@H]1CCc2ccccc2N(Cc2ccc(-c3ccccc3-c3nn[nH]n3)cc2)C1=O, CC(C)(N)CC(=O)NC1CCc2ccccc2N(Cc2ccc(-c3ccccc3-c3nn[nH]n3)cc2)C1=O [L-158432] is 58-fold lower in EC50: 7000 nM for the first, 120 nM for the second.

First: CC(C)(N)CNC1CCc2ccccc2N(Cc2ccc(-c3ccccc3-c3nn[nH]n3)cc2)C1=O (configuration not stated)
Second: CC(C)(N)CC(=O)N[C@@H]1CCc2ccccc2N(Cc2ccc(-c3ccccc3-c3nn[nH]n3)cc2)C1=O
The EC50 of the first is 17-fold higher: 1000 nM for the first, 60 nM for the second. The second is the more potent here.

Going from CC(C)(N)CCC(=O)N[C@@H]1CCc2ccccc2N(Cc2ccc(-c3ccccc3-c3nn[nH]n3)cc2)C1=O to CC(C)(N)C(=O)N[C@@H]1CCc2ccccc2N(Cc2ccc(-c3ccccc3-c3nn[nH]n3)cc2)C1=O, the EC50 falls from 3000 nM to 30 nM (100-fold). The second is the more potent here.

Compared with C[C@H](O)CNC(C)(C)CNC(=O)N[C@@H]1CCc2ccccc2N(Cc2ccc(-c3ccccc3-c3nn[nH]n3)cc2)C1=O, CC(C)(N)CNC(=O)N[C@@H]1CCc2ccccc2N(Cc2ccc(-c3ccccc3-c3nn[nH]n3)cc2)C1=O is 25-fold lower in EC50: 2500 nM for the first, 100 nM for the second.

Reference: ChEMBL document CHEMBL1128955, “Benzolactam growth hormone secretagogues: Replacement of the C-3 amide bond in L-692,429” (1996)
